The source made the active and inactive calls. The calls are words filed in the database; no cut-off is given here.
Experiments:
[1] = Stability of the compound in cell culture medium containing 10% fetal bovine serum assessed as drug degradation at 50 uM incubated for 12 hrs by HPLC analysis; type: physicochemical, cell-free; conditions: cattle, read-out: Drug degradation
[2] = Stability of the compound in cell culture medium containing 10% fetal bovine serum at 50 uM incubated for 12 hrs by HPLC analysis; type: physicochemical, cell-free; conditions: cattle
A549 = assay: Reduction in intracellular GSH level in human A549 cells by measuring decrease in fluorescence signal at 10 uM incubated for 10 mins in presence of GSH scavenger NEM by fluorescence microscopic analysis; type: functional, cell-based

Structure (SMILES)	degraded at 12 h, 50 µM [1] [%]	Stability [2]	Activity (A549)
Cc1ncsc1-c1ccc(CNC(=O)[C@@H]2C[C@@H](O)CN2C(=O)[C@@H](NC(=O)CN2CCN(c3cc(-c4ccccc4OS(=O)(=O)c4ccc([N+](=O)[O-])c(F)c4)nnc3N)CC2)C(C)(C)C)cc1	> 60	Unstable	
CCN(CCN1C(=O)C=CC1=O)c1ccc2c(C)cc(=O)oc2c1			Active
